PMC4974614, “Human native kappa opioid receptor functions not predicted by recombinant receptors: Implications for drug design” (Scientific Reports, 2016)
Several values for one entry are separate records, joined by “and”; a condition that tells them apart may be missing. Identical values can stand only once. Counter-ions that a name gives are not always drawn. Like-named read-outs stand apart in the source and are kept apart here.

How the values were obtained:
human κ receptor [1] = biological target: T1, human κ receptor (Homo sapiens, UniProt P41145); experiment: cell-based; conditions: for Emax: HEK293, read-out: BRET Emax (%)
T1 sequence (P41145 whole entry): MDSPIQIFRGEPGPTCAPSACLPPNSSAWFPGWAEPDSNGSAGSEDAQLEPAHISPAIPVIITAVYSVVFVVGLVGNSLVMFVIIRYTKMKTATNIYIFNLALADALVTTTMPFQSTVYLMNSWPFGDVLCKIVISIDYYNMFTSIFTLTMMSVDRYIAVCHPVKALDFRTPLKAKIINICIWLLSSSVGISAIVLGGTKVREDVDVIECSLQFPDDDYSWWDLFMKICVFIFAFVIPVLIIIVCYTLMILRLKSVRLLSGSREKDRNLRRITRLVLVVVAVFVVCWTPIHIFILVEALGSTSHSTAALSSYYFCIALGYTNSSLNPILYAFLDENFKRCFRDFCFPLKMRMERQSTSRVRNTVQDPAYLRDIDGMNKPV

mouse κ receptor [2] = biological target: T2, mouse κ receptor (Mus musculus, UniProt P33534); experiment: cell-based; conditions: HEK293, read-out: BRET Emax (%)
T2 sequence (P33534 whole entry): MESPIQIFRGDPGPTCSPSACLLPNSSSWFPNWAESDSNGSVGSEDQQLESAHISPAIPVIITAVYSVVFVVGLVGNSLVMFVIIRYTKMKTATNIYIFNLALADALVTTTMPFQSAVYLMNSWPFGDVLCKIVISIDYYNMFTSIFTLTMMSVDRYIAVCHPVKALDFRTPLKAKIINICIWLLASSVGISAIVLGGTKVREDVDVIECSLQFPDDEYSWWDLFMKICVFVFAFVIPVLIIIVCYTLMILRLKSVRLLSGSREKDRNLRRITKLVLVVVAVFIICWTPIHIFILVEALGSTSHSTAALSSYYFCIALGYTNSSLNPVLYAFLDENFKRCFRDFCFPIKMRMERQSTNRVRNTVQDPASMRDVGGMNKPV

human κ receptor [3] = biological target: T1, human κ receptor; experiment: cell-based; conditions: for Emax: HEK293, read-out: TR-FRET Emax (%)
mouse κ receptor [4] = biological target: T2, mouse κ receptor; experiment: cell-based; conditions: HEK293, read-out: TR-FRET Emax (%)
human κ receptor [5] = biological target: T1, human κ receptor; format: cell-based
mouse κ receptor [6] = biological target: T2, mouse κ receptor; format: cell-based
mouse isolated colon = experiment: EFS-evoked cholinergically-mediated contractions of mouse isolated colon; format: cell-based; conditions: for Emax / EC50: Mus musculus; for Emax: read-out: Emax (%), inhibition of EFS-evoked after-contractions; for EC50: read-out: pEC50, inhibition of EFS-evoked after-contractions (converted)
mouse proximal colon = experiment: Carbachol-induced contractions of mouse proximal colon; format: cell-based
Experimental: Changes in muscle tension were recorded using isometric force transducers (AD Instruments, Chalgrove, UK) on a data acquisition system (Biopac Systems Inc., Goleta, CA, USA). The strips were given 1 g tension and allowed to recover for 30 min during which time the bath solutions were changed every 15 min; this initial tension was previously determined as the optimum required to maximally detect EFS-evoked responses in both regions (data not shown). Electrical Field Stimulation (EFS) was applied at 5 Hz using a maximally-effective voltage (80 V) and 0.5 ms bipolar pulse duration […], given for 30 s every 120 s, for at least 1 hour before drug addition. These parameters of EFS consistently evoked nerve-mediated responses with a good signal-to-noise ratio over spontaneous muscle activity. After obtaining consistent responses, drugs were applied non-cumulatively to separate tissues (20 min contact); changes in resting muscle tension and responses to EFS were measured. Finally, any effects of the drugs on carbachol-induced contractions were examined by first obtaining consistent responses to a submaximally-effective concentration of carbachol (1 μM; 27 ± 9% max, 5 min contact; n = 4). The compounds were then added 5 min before application of carbachol (1 μM, 5 min contact), followed by washing, and this process was repeated at least once more.

human isolated colon [7] = experiment: EFS-evoked cholinergically-mediated contractions of human isolated colon; format: cell-based; conditions: for inhibition at 1 µM: read-out: % inhibition of contractions evoked during EFS; for effect alone on responses to EFS: phentolamine 1 μM and propranolol 1 μM together, descending colon
human descending colon [8] = experiment: cells; format: cell-based
[9] = system: tetrodotoxin-sensitive Na+ channels; conditions: read-out: EC50, block of tetrodotoxin-sensitive Na+ channels; cited from earlier work
μ-opioid receptors = conditions: cited from earlier work
[10] = system: K+ channels in mouse epithelia; conditions: read-out: IC50, block of K+ channels; cited from earlier work
[11] = human, in vivo; cited from earlier work
[12] = in vivo; cited from earlier work
human descending colon [13] = experiment: Carbachol-evoked contractions of human descending colon
[14] = system: mouse κ receptors in COS-1 cells; conditions: read-out: IC50, radioligand binding; cited from earlier work
[15] = biological target: Recombinant human receptor; conditions: cited from earlier work
[16] = biological target: Recombinant human receptor; conditions: cited from earlier work; remark: listed apart in the source
human isolated colon [17] = conditions: cited from earlier work
κ receptor = conditions: cited from earlier work

Work on `CN(C(=O)C(c1ccccc1)c1ccccc1)[C@H](CN1CC[C@H](O)C1)c1ccccc1` [Asimadoline] yielded an EC50 (human κ receptor [1]; BRET pEC50) of 0.631 nM, an Emax (human κ receptor [1]) of 98 ± 5% and an Emax (mouse κ receptor [2]) of 99 ± 4%. For the same compound, the EC50 (human κ receptor [3]) was 39.8 nM, the Emax (human κ receptor [3]) was 97 ± 2% and the Emax (mouse κ receptor [4]) was 96 ± 3%. The BIAS (human κ receptor [5]) was 0.60, the BIAS (mouse κ receptor [6]) was 0.65 and the “reduction of contractions of the distal colon” value (mouse isolated colon) was 59 ± 13%. The “time taken to achieve maximum activity” value (mouse isolated colon) was 17 ± 3 min, the Emax (mouse isolated colon) was 52 ± 7% and the EC50 (mouse isolated colon) was 7.94 nM. For the same compound, the “effect on contractions induced by carbachol 1 μM” value (mouse proximal colon) was 5 ± 7, the “Time to max effect” value (human isolated colon [7]) was 40 ± 4 min and the “effect on baseline muscle tension” value (human isolated colon [7]) was “Neither asimadoline nor ICI204448 changed baseline muscle tension”. For the same compound, the “time to maximum inhibition” value (human isolated colon [7]) was 30 ± 5 min, the inhibition at 1 µM (human isolated colon [7]; Homo sapiens) was -29 ± 4% and the “maximum inhibition of the response to ICI204448 60 nM” value (human descending colon [8]) was 19 ± 7%. The IC50 (human descending colon [8]; Homo sapiens, read-out: pIC50, reduction of the response to ICI204448 60 nM (converted)) was 1.58 nM, the EC50 [9] was 8400 nM and the “concentration activating μ-opioid receptors” value (μ-opioid receptors) was 3 µM. The IC50 [10] was 23700 nM, the “effect on colonic transit or postprandial motility” value [11] was “not to affect colonic transit or postprandial motility” and the “effect on sensation or pain caused by colonic distension” value [12] was “reduced the sensation or pain caused by colonic distension”. For the same compound, the “effect on contractions evoked by carbachol 1 μM” value (human descending colon [13]) was −10 ± 9%.

`CN(C(=O)Cc1ccc(Cl)c(Cl)c1)C(CN1CCCC1)c1cccc(OCC(=O)O)c1` (stereo not drawn) [ICI204448] showed an Emax (human κ receptor [1]) of 100 ± 3%, an Emax (mouse κ receptor [2]) of 90 ± 4% and an Emax (human κ receptor [3]) of 98 ± 2%. The Emax (mouse κ receptor [4]) was 92 ± 4%, the “Emax (%), inhibition of EFS-evoked after-contractions” value (mouse isolated colon) was 57 ± 7% and the “reduction of contractions of the distal colon” value (mouse isolated colon) was 70 ± 5%. The “time taken to achieve maximum activity” value (mouse isolated colon) was 7 ± 2 min, the Emax (mouse isolated colon) was 49 ± 8% and the EC50 (mouse isolated colon) was 3.16 nM. For the same compound, the “effect on contractions induced by carbachol 1 μM” value (mouse proximal colon; 1 μM, proximal colon) was 0 ± 5 % initial carbachol response, the “Time to max effect” value (human isolated colon [7]) was 13 ± 3 min and the “effect on baseline muscle tension” value (human isolated colon [7]) was “Neither asimadoline nor ICI204448 changed baseline muscle tension”. The “effect on relaxations evoked by EFS” value (human isolated colon [7]) was 1 ± 7 % change from baseline EFS, the “pEC50, inhibition of contractions during EFS” value (human isolated colon [7]) was 8.0 ± 0.4 and the “time to maximum inhibition” value (human isolated colon [7]) was 7 ± 1 min. For the same compound, the inhibition at 1 µM (human isolated colon [7]; Homo sapiens) was -57 ± 10%, the inhibition at 0.1 µM (human isolated colon [7]; Homo sapiens, read-out: inhibition of EFS-evoked contractions) was 130 ± 29% and the IC50 [14] was 6.6 nM. The “G protein pEC50” value [15] was 8.38 ± 0.09, the “Arrestin pEC50” value [16] was 8.48 ± 0.06 and the “biased activity towards the human κ receptor arrestin pathway” value [16] was “only weak propensity for biased activity”. For the same compound, the “effect on contractions evoked by carbachol 1 μM” value (human descending colon [13]; 100 nM, descending colon, no EFS) was −9 ± 2%.

In the case of `COC(=O)[C@@H](N)CCCNC(N)=N[N+](=O)[O-]` [L-NAME, Nω-nitro-L-arginine methyl ester hydrochloride], the “effect on EFS-evoked relaxations” value (mouse isolated colon; 300 μM, proximal and distal colon) is reported as “abolished” and the “effect on relaxations during EFS” value (human isolated colon [7]; 300 μM, ascending and descending colon) is reported as “prevented”.

In the case of `CN1[C@@H]2CC[C@H]1C[C@@H](OC(=O)C(CO)c1ccccc1)C2` (stereo partly drawn) [atropine], the “increase of EFS-evoked relaxations” value (mouse isolated colon) is reported as 61 ± 13%, the reduction of after-contractions (mouse isolated colon) is reported as 81 ± 5% and the “effect on contractions during EFS” value (human isolated colon [7]) is reported as “prevented”. For the same compound, the attenuation of after-contractions (human isolated colon [17]) was 56 ± 12%.

For `C[N+](C)(C)CCOC(N)=O` [carbachol], the “contraction as % max” value (mouse proximal colon; 1 μM, 5 min contact) was 27 ± 9 % max and the “contraction as % of maximum contraction to carbachol” value (human descending colon [13]; 1 μM, 5 min contact) was ~ 50%.

In the case of `CC[C@](COCc1cc(OC)c(OC)c(OC)c1)(c1ccccc1)N(C)C` [fedotozine], the “selectivity for the κ receptor over other opioid receptors” value (κ receptor) is given as about 2 fold.

With `Oc1ccc2c3c1O[C@H]1c4[nH]c5c(c4C[C@@]4(O)[C@@H](C2)N(CC2CC2)CC[C@]314)C[C@@]1(O)[C@H]2Cc3ccc(O)c4c3[C@@]1(CCN2CC1CC1)[C@H]5O4` [nor-binaltorphamine] the “effect by itself on the response to EFS” value (mouse isolated colon) was “did not by itself change the response to EFS”, the “effect on inhibition by ICI204448 and asimadoline” value (mouse isolated colon) was “antagonised” and the “effect by itself on contractions to EFS” value (human isolated colon [7]) was “by itself did not affect contractions to EFS”. For the same compound, the “intercept of Schild analysis” value (human isolated colon [7]) was −9.7 and the “slope of Schild analysis” value (human isolated colon [7]) was 0.53 ± 0.11.

With `Cc1ccc(N(CC2=NCCN2)c2cccc(O)c2)cc1` [phentolamine] the “effect alone on responses to EFS” value (human isolated colon [7]) was 2 ± 3 % change from baseline EFS.

For `CC(C)NCC(O)COc1cccc2ccccc12` (stereo not drawn) [propranolol], the “effect alone on responses to EFS” value (human isolated colon [7]) was 2 ± 3 % change from baseline EFS.

With `NC1=N[C@H](O)[C@H]2[C@H]3O[C@]4(O)O[C@@H]([C@@H](O)[C@@]2(N1)[C@@H]4O)[C@]3(O)CO` [tetrodotoxin] the “effect on EFS-evoked responses (relaxation, after-contraction)” value (mouse isolated colon) was “prevented” and the “effect on responses evoked by EFS” value (human isolated colon [7]) was “prevented”.

For Dynorphin 1-13, the “% inhibition of contractions evoked during EFS” value (human isolated colon [7]) is listed as -30% and -35%, the “Time to max effect” value (human isolated colon [7]) is listed as 17 min and 11 min and the “G protein pEC50” value [15] is listed as 8.68 ± 0.07. For the same compound, the “Arrestin pEC50” value [16] was 7.01 ± 0.07.
